Results: patent EP4752149A1, “OXYGEN-CONTAINING FUSED TRICYCLIC DERIVATIVE, AND PREPARATION METHOD THEREFOR AND USE THEREOF” (Tuojie Biotech (Shanghai) Co., Ltd., priority 2023, dated 2025)

Key:
[1] = test system: Ovarian cancer cells (OVCAR3); test: Inhibitory activity against ovarian cancer cells (OVCAR3), CTG cell viability; assay type: cell-based; settings: Homo sapiens, OVCAR-3, 168 h, 7 days with compound
Protocol: Ovarian cancer cells (OVCAR3) were cultured using an RPMI 1640 culture medium containing 10% FBS in a cell incubator (37 °C, 5% CO2). On day one, the cells were plated in a 384-well plate at a cell concentration of 800 cells/well and cultured overnight in an incubator. On day two, the cells were treated with compounds. The highest compound concentration was 10 µM and was diluted 3-fold to obtain 9 concentrations, and the final concentration of DMSO was 0.1%. After the cells were cultured in the incubator for another 7 days, the cell viability was tested using a CTG Cell Viability Detection Reagent (MCE); the testing method was consistent with the method provided by the kit. Data were processed using GraphPad Prism 8, and IC50 was calculated. [formula] X: the logarithm of the compound concentration; Y: inhibition%. Table 2. The IC50 (nM) of compounds of the present disclosure against OVCAR3

[2] = test system: Triple-negative breast cancer cells (HCC1806); test: Inhibitory activity against triple-negative breast cancer cells (HCC1806), CTG cell viability; assay type: cell-based; settings: Homo sapiens, 168 h, 7 days with compound
Protocol: Triple-negative breast cancer cells (HCC1806, Nanjing Cobioer Biosciences Co., Ltd.) were cultured using an RPMI 1640 culture medium containing 10% FBS in a cell incubator (37 °C, 5% CO2). On day one, the cells were plated in a 384-well plate at a cell concentration of 200 cells/well and cultured overnight in an incubator. On day two, the cells were treated with compounds. The highest compound concentration was 10 µM and was diluted 3-fold to obtain 9 concentrations, and the final concentration of DMSO was 0.2%. After the cells were cultured in the incubator for another 7 days, the cell viability was tested using a CTG Cell Viability Detection Reagent (MCE); the testing method was consistent with the method provided by the kit. Data were processed using XLfit, and IC50 was calculated. [formula] X: the logarithm of the compound concentration; Y: inhibition%. Table 4. The IC50 (nM) of compounds of the present disclosure against HCC1806

| IC50 [1] [nM] | IC50 [2] [nM] | Structure (SMILES) |
| --- | --- | --- |
| 276 |  | C[C@H]1COc2c(-c3nc(Nc4ccc(S(C)(=N)=O)cc4)ncc3Cl)cc(F)c3nc(C(C)(C)O)n1c23 (stereo partly drawn) [Example 19, (4-((5-Chloro-4-((S)-8-fluoro-2-(2-hydroxypropan-2-yl)-3-methyl-3,4-dihydro-5-oxa-1,2a-diazaacenaphthylen-6-yl)pyrimidin-2-yl)amino)phenyl)(methyl)sulfinamide] |
| 255 |  | C[C@H]1COc2c(-c3nc(Nc4ccc(N5CCOCC5=O)c(F)c4)ncc3Cl)cc(F)c3nc(C(C)(C)O)n1c23 [Example 24, (S)-4-(4-((5-Chloro-4-(8-fluoro-2-(2-hydroxypropan-2-yl)-3-methyl-3,4-dihydro-5-oxa-1,2a-diazaacenaphthylen-6-yl)pyrimidin-2-yl)amino)2-fluorophenyl)morpholin-3-one] |
| 409 |  | C[C@H]1COc2c(-c3nc(Nc4ccc(N5CCOCC5=O)c(Cl)c4)ncc3Cl)cc(F)c3nc(C(C)(C)O)n1c23 [Example 25, (S)-4-(2-Chloro-4-((5-chloro-4-(8-fluoro-2-(2-hydroxypropan-2-yl)-3-methyl-3,4-dihydro-5-oxa-1,2a-diazaacenaphthylen-6-yl)pyrimidin-2-yl)amino)phenyl)morpholin-3-one] |
| 426 |  | CCN1CCN(C(=O)c2ccc(Nc3ncc(Cl)c(-c4cc(F)c5nc(C(C)(C)O)n6c5c4OC[C@@H]6C)n3)cc2F)CC1 [Example 32, (S)-(4-((5-Chloro-4-(8-fluoro-2-(2-hydroxypropan-2-yl)-3-methyl-3,4-dihydro-5-oxa-1,2a-diazaacenaphthylen-6-yl)pyrimidin-2-yl)amino)-2-fluorophenyl)(4-ethylpiperazin-1-yl)methanone] |
| 202 |  | C[C@H]1COc2c(-c3nc(Nc4ccc(C(=O)N5CC[C@H](N(C)C)C5)c(F)c4)ncc3Cl)cc(F)c3nc(C(C)(C)O)n1c23 [Example 35, (4-((5-Chloro-4-((S)-8-fluoro-2-(2-hydroxypropan-2-yl)-3-methyl-3,4-dihydro-5-oxa-1,2a-diazaacenaphthylen-6-yl)pyrimidin-2-yl)amino)2-fluorophenyl)((S)-3-(dimethylamino)pyrrolidin-1-yl)methanone] |
| 961 |  | C[C@H]1COc2c(-c3nc(Nc4ccc(C(=O)N5CC[C@H](N(C)C)C5)c(Cl)c4)ncc3Cl)cc(F)c3nc(C(C)(C)O)n1c23 [Example 36, (2-Chloro-4-((5-chloro-4-((S)-8-fluoro-2-(2-hydroxypropan-2-yl)-3-methyl-3,4-dihydro-5-oxa-1,2a-diazaacenaphthylen-6-yl)pyrimidin-2-yl)amino)phenyl)((S)-3-(dimethylamino)pyrrolidin-1-yl)methanone] |
| 690 |  | C[C@H]1COc2c(-c3nc(Nc4ccc(C(=O)N5CC[C@@H](N(C)C)C5)c(Cl)c4)ncc3Cl)cc(F)c3nc(C(C)(C)O)n1c23 [Example 38, (2-Chloro-4-((5-chloro-4-((S)-8-fluoro-2-(2-hydroxypropan-2-yl)-3-methyl-3,4-dihydro-5-oxa-1,2a-diazaacenaphthylen-6-yl)pyrimidin-2-yl)amino)phenyl)((R)-3-(dimethylamino)pyrrolidin-1-yl)methanone] |
| 364 |  | C[C@H]1COc2c(-c3nc(Nc4ccc(C(=O)N5CC[C@H](N(C)C)C5)cc4)ncc3Cl)cc(F)c3nc(C(C)(C)O)n1c23 [Example 40, (4-((5-Chloro-4-((S)-8-fluoro-2-(2-hydroxypropan-2-yl)-3-methyl-3,4-dihydro-5-oxa-1,2a-diazaacenaphthylen-6-yl)pyrimidin-2-yl)amino)phenyl)((S)-3-(dimethylamino)pyrrolidin-1-yl)methanone] |
| 674 |  | C[C@H]1COc2c(-c3nc(Nc4ccc(C(=O)N5CC[C@@H](N(C)C)C5)cc4)ncc3Cl)cc(F)c3nc(C(C)(C)O)n1c23 [Example 42, (4-((5-Chloro-4-((S)-8-fluoro-2-(2-hydroxypropan-2-yl)-3-methyl-3,4-dihydro-5-oxa-1,2a-diazaacenaphthylen-6-yl)pyrimidin-2-yl)amino)phenyl)((R)-3-(dimethylamino)pyrrolidin-1-yl)methanone] |

The next lines start with the compound.

| Structure (SMILES) | IC50 [1] [nM] | IC50 [2] [nM] |
| --- | --- | --- |
| CNC(=O)c1ccc(Nc2ncc(F)c(-c3cc(F)c4nc(C(C)(C)O)n5c4c3OC[C@@H]5C)n2)cc1 [Example 3, (S)-4-((5-Fluoro-4-(8-fluoro-2-(2-hydroxypropan-2-yl)-3-methyl-3,4-dihydro-5-oxa-1,2a-diazaacenaphthylen-6-yl)pyrimidin-2-yl)amino)-N-methylbenzamide] | 197 | 172 |
| C[C@H]1COc2c(-c3nc(Nc4ccc(N5CCOCC5=O)cc4F)ncc3F)cc(F)c3nc(C(C)(C)O)n1c23 [Example 4, (S)-4-(3-Fluoro-4-((5-fluoro-4-(8-fluoro-2-(2-hydroxypropan-2-yl)-3-methyl-3,4-dihydro-5-oxa-1,2a-diazaacenaphthylen-6-yl)pyrimidin-2-yl)amino)phenyl)morpholin-3-one] | 348 | 278 |
| C[C@H]1COc2c(-c3nc(Nc4ccc(S(C)(=N)=O)cc4)ncc3F)cc(F)c3nc(C(C)(C)O)n1c23 (stereo partly drawn) [Example 17, (4-((5-Fluoro-4-((S)-8-fluoro-2-(2-hydroxypropan-2-yl)-3-methyl-3,4-dihydro-5-oxa-1,2a-diazaacenaphthylen-6-yl)pyrimidin-2-yl)amino)phenyl)(methyl)sulfonimide] | 154 |  |
| C[C@H]1COc2c(-c3nc(Nc4ccc(N5CCOCC5=O)cc4)ncc3F)cc(F)c3nc(C(C)(C)O)n1c23 [Example 18, (S)-4-(4-((5-Fluoro-4-(8-fluoro-2-(2-hydroxypropan-2-yl)-3-methyl-3,4-dihydro-5-oxa-1,2a-diazaacenaphthylen-6-yl)pyrimidin-2-yl)amino)phenyl)morpholin-3-one] | 103 |  |
| CC(O)c1nc2c(F)cc(-c3nc(Nc4ccc(N5CCOCC5=O)cc4F)ncc3F)c3c2n1[C@@H](C)CO3 (stereo partly drawn) [Example 21, 4-(3-Fluoro-4-((5-fluoro-4-((3S)-8-fluoro-2-(1-hydroxyethyl)-3-methyl-3,4-dihydro-5-oxa-1,2a-diazaacenaphthylen-6-yl)pyrimidin-2-yl)amino)phenyl)morpholin-3-one] | 260 |  |
| C[C@H]1COc2c(-c3nc(Nc4ccc(N5CCNCC5=O)cc4F)ncc3Cl)cc(F)c3nc(C(C)(C)O)n1c23 [Example 23, (S)-1-(4-((5-Chloro-4-(8-fluoro-2-(2-hydroxypropan-2-yl)-3-methyl-3,4-dihydro-5-oxa-1,2a-diazaacenaphthylen-6-yl)pyrimidin-2-yl)amino)3-fluorophenyl)piperazin-2-one] |  | 386 |
| COCc1nc2c(F)cc(-c3nc(Nc4ccc(N5CCOCC5=O)cc4F)ncc3F)c3c2n1[C@@H](C)CO3 [Example 26, (S)-4-(3-Fluoro-4-((5-fluoro-4-(8-fluoro-2-(methoxymethyl)-3-methyl-3,4-dihydro-5-oxa-1,2a-diazaacenaphthylen-6-yl)pyrimidin-2-yl)amino)phenyl)morpholin-3-one] | 517 |  |
| C[C@H]1COc2c(-c3nc(Nc4ccc(N5CCOCC5=O)cc4F)ncc3F)cc(F)c3nc(C4(O)CCC4)n1c23 [Example 28, (S)-4-(3-Fluoro-4-((5-fluoro-4-(8-fluoro-2-(1-hydroxycyclobutyl)-3-methyl-3,4-dihydro-5-oxa-1,2a-diazaacenaphthylen-6-yl)pyrimidin-2-yl)amino)phenyl)morpholin-3-one] | 137 |  |
| C[C@H]1COc2c(-c3nc(Nc4ccc(CC#N)cc4)ncc3Cl)cc(F)c3nc(C(C)(C)O)n1c23 [Example 29] | 335 |  |
